3 molecules from publication PMC12320245 (International Journal of Biological Sciences, 2025) can be followed below.

The test system of this test is astrocytes. Description: Lysosomal pH detection (DND-189 fluorescence). The format is cell-based.

Molecules are shown by their SMILES.

In the case of `O=S(=O)(NCCNC/C=C/c1ccc(Br)cc1)c1cccc2cnccc12` [H-89], the “lysosomal pH (DND-189 fluorescence), co-treatment with PKA inhibitor” value (BafA1 + AMX + H-89) is “abolished the lysosomal acidification effect of AMX”.
On to `Nc1ncnc2c1ncn2[C@@H]1O[C@@H]2COP(=O)(O)O[C@H]2[C@H]1O` [cAMP, cyclic adenosine monophosphate], for which, for the setting “300 μM cAMP with 100 nM BafA1”, the “lysosomal pH (DND-189 fluorescence), reversal of BafA1 effect” value is given as “effectively reversed BafA1-induced alkalization”.
With `CO/C1=C\C(C)=C\[C@@H](C)[C@@H](O)[C@@H](C)C/C(C)=C/C=C/[C@H](OC)[C@@H]([C@@H](C)[C@@H](O)[C@H](C)[C@@]2(O)C[C@@H](O)[C@H](C)[C@@H](C(C)C)O2)OC1=O` [bafilomycin A1], the “lysosomal pH (DND-189 fluorescence)” value (100 nM BafA1, 1-hour exposure) is given as “markedly alkalinized lysosomes”.
